In patent US4966962A, “Reverse analogue of actinomycin D” (Trustees of Boston University, priority 1988, dated 1990):
Like-named read-outs stand apart in the source and are kept apart here. *1 amine or outer side, *2 acyl side, *3 side chain or, on linkers, in order; H or OH if unused. Where a SMILES comes first, the peptide text is derived from it. Bridges are numbered along the chain shown (N, C = ends). Roman numbers before positions name the chains, in order. [ ]: non-standard residue; d: D form. Actinocin(9to1) = Cc1c2oc3c(C)ccc(C(=O)[*:1])c3nc-2c(C(=O)[*:2])c(N)c1=O; NMeV = CN[C@H](C(=O)O)C(C)C; Sar = CNCC(=O)O

Key:
rat liver microsomes [1] = test: Stimulation of adrenochrome formation (superoxide) by rat hepatic microsomal incubations; format: biochemical; settings: for adrenochrome formation in presence of SOD: with SOD (superoxide dismutase) 5 ug/mL; for percentage stimulation of adrenochrome formation / adrenochrome formation: without SOD; for percentage stimulation of adrenochrome formation: (drug-stimulated rate - basal rate)/basal rate × 100; for adrenochrome formation: average ± standard error of triplicate
From the text: It has been reported that the quinone imino chromophore of actinomycin can be subjected to enzyme-catalyzed single-electron reduction to give free-radical species that generate superoxides by reacting with molecular oxygen. The process needs a reductive cofactor NADPH, which is oxidized to NADP^+ during the process, giving a change in the absorbance at 340 nm that can be measured spectrophotometerically. Alternatively, the superoxides generated during the process may be allowed to react with epinephrine to produce adrenochrome, a chromophore with strong absorbance at 480 nm that can be measured spectrophotmetrically.
The superoxide formations were studied via NADPH oxidation catalyzed by AMD analogues in the presence of rat liver microsomes. […] The process of adrenochrome formation is inhibited by superoxide dismutase, confirming that superoxide is indeed generated in these systems.
^a The percentage stimulation = (drugstimulated rate basal rate)/basa
rate × 100 and is shown in parentheses. NADPH oxidation was measure
at 340 nm and adrenochrome formation was measured at 489 nm; the values
are average ± standard errors of triplicate analyses. ^b SOD,

[2] = Metabolism in tumor cell homogenate (T); format: in vitro ADME, murine; settings: P388 homogenate (T), 37° C., 16 h
Method: (§1) In this respect, actinomycin is only about 30% as efficient as its synthetic analogues, RAD III (3c) and SAD (2) (Table II). Metabolic Studies, Metabolism in the Presence of Tumor Cell Homogenates and Rat Liver Microsomes. The cell homogenates (P388 cells were sonicated and were incubated at 37° C. with analogues for 16 h. Rat microsomes were harvested from phenobarbital-induced rats by standard procedure. Incubations were carried out for 6 h in the presence of a NADPH-generating system, i.e., glucose-6-phosphate dehydrogenase and glucose 6-phosphate. The metabolites and their water-soluble conjugates were isolated and identified with the use of tritiated analogues.
(§2) It was observed that the RAD analogues are metabolized to SAD (2) with the loss of oxazole ring. […] In tumor cells, a larger fraction of SAD (2) (30-50%) remains unmetabolized. SAD is found to form glucuronide and sulfate conjugates only in tumor cells. […] Isolation of SAD from RAD analogues is a very important step, because SAD is found to be a potent and effective antitumor agent in several murine tumor systems (Tables V-XII).

rat liver microsomes [3] = test: Metabolism in rat liver microsomes (M); format: in vitro ADME; settings: 6 h, NADPH-generating system
Method: as §1, §2

P388 cells = test: Inhibition of nucleic acid synthesis in P388 cells in vitro; format: cell-based, murine
From the text: (§3) In addition to the P388 cells, this inhibitory activity in human carcinoma HT-29 grown in tissue culture has been also examined. The values of the drug concentration producing 50% inhibition of the incorporation of [^3 H]-thymidine and [^14 C] uridine into nucleic acid macromolecules are presented in Table V. These values are taken as estimates of the inhibition of DNA and RNA synthesis. […] Furthermore, the inhibitory activities of these analogues are three-to fivefold higher than AMD; the order of potency of the analogues for their inhibition of DNA synthesis is:
(§4) DNA and RNA synthesis in P388 and HT-29 cells lines was monitored in the presence of drugs, and the rates of inhibition of their synthesis were estimated from the amounts of [2-^14 C]-uridine and [^3 H]-thymidine into RNA and DNA, respectively, according to the methods described previously.
(§5) ^a Human colon carcinoma in culture, IC50, drug concentration
(§6) producing a 50% inhibition of incorporation of precursor [^3 H]
(§7) thymidine into DNA and [^14 C] uridine into RNA in the cell lines,
(§8) isolated as acid preciptable materials. Data are average of replicate

[4] = tested on: human colon carcinoma HT-29; test: Inhibition of nucleic acid synthesis in HT-29 cells in vitro; format: cell-based; settings: 2-h exposure
From the text: as §3, §4
In brief, for HT-29 colon carcinoma monolayer cells, 10^4 cells in each of five wells per concentration, were incubated with radiolabelec nucleosides ([…] each) for the last hour of a 2-h drug exposure, following which the cells were aspirated and washed with buffered medium. Cells were trypsinized and counted in the Coulter counter. The cell suspensions were then precipitated onto glass fiber filter discs (Whatman 934H), with 10% trichloracetic acid and twice with 95% ethanol and dried, and the incorporation of radionucleotides was estimated.
In addition, to investigate the cross contamination of radioactivity from [2^14 C] uridine, the cells were lysed with ice-cold 1% Triton X for 2.5 min. Macromolecules were precipitated with the addition of 10% perchloric acid (5% in the medium) and centrifuged; the pellet in 1% NaCl was treated with an equal volume of phenol reagent, the emulsion was centrifuged at 10000 g for 30 min at 4° C., and the separated layer was adjusted to 1% NaCl and treated with an equal volume of 2-ethoxyethanol to precipitate the nucleic acids. The precipitate was washed with 75% ethanol and dissolved in an aqueous solution containing 2% sodium acetate and 1.5% NaCl. An aliquot was used for estimation of the total radionucleotide incorporation. Ribonuclease, previously heated to 80° C. for 10 min to destroy deoxyribonuclease activity, was added, and the mixture was incubated at 37° C. for 30 min.
as §5, §6, §7, §8

[5] = Toxic deaths in nontumored mice treated in parallel (colon 38 experiment); format: in vivo
From the text: × 100; in parenthesis, number of over 100 day survivors/number of
mice in a group of nontumored mice treated in parallel with the
tumorbearing mice and observed for 100 days.

mammary MX-1 = test: Treatment of mammary MX-1 tumor; format: in vivo; settings: at the doses tested
P388 Leukemia = test: Minimum effective dose in P388 tumor bearing mice; format: in vivo; settings: for therapeutic index MTD/MED: MTD in normal BDF1 mice / MED in P388 tumor bearing mice; for MED (minimum effective dose), dose giving 45% increase in life span over control: ip once on days 1, 5, and 9, from plotted log-dose response data
From the text: ^a Drugs administered ip once on days 1, 5, and 9 starting 1 day afte
tumor implantation. Determinations were made from analysis of plotted
logdose response data. ^b MED (minimum effective dose) is the dose
(milligram/killogram) providing an increase in life span of 45% over

[6] = [3H]thymidine incorporation, read-out: IC50, DNA synth
[7] = [14C]uridine incorporation, read-out: IC50, RNA synth
[8] = dose 0.15 mg/kg iv days 1, 5, 9
[9] = dose 0.30 mg/kg iv days 1, 5, 9
[10] = dose 0.60 mg/kg iv days 1, 5, 9
[11] = dose 1.20 mg/kg iv days 1, 5, 9

Compound	adrenochrome formation in presence of SOD (rat liver microsomes [1])	percentage stimulation of adrenochrome formation (rat liver microsomes [1]) [%]	adrenochrome formation (rat liver microsomes [1])	percent unconverted drug [2]	percent unconverted drug (rat liver microsomes [3]) [%]	IC50 (P388 cells; [6]) [nM]	IC50 (P388 cells; [7]) [nM]	IC50 [4, 6] [nM]	IC50 [4, 7] [nM]	toxic deaths [5, 8]	toxic deaths [5, 9]	toxic deaths [5, 10]	response of mammary MX-1 to treatment (mammary MX-1)	therapeutic index MTD/MED (P388 Leukemia)	MED (minimum effective dose), dose giving 45% increase in life span over control (P388 Leukemia) [milligram/killogram]	toxic deaths [5, 11]	percent isolated: tissue bound [2] [%]	percent isolated: unidentified metabolite [2] [%]	percent metabolite isolated: SAD-glucuronide and/or sulfate [2] [%]	percent metabolite isolated: protein conjugates [2] [%]	also measured
Cc1c2oc3c(C)ccc(C(=O)N[C@@H]4C(=O)N[C@H](C(C)C)C(=O)N5CCC[C@H]5C(=O)N(C)CC(=O)N(C)[C@@H](C(C)C)C(=O)O[C@@H]4C)c3nc-2c(C(=O)N[C@@H]2C(=O)N[C@H](C(C)C)C(=O)N3CCC[C@H]3C(=O)N(C)CC(=O)N(C)[C@@H](C(C)C)C(=O)O[C@@H]2C)c(N)c1=O [AMD (1), Actinomycin D] (I: T[dV]P[Sar][NMeV] / II: T[dV]P[Sar][NMeV]; ester I:1-I:C, II:1-II:C; linker I:N-II:N via Actinocin(9to1))	inhibited	8.5	2.29 ± 0.33 nmol/min per mg of protein	100%	100	1100 ± 90	50 ± 5	900 ± 80	100 ± 11	1/9	0/9	4/9	practically ineffective	4	0.0625						toxic deaths ([5]; dose 0.075 mg/kg iv days 1, 5, 9): 0/9; toxic deaths ([5]; dose 0.45 mg/kg iv days 1, 5, 9): 1/9
Cc1c2oc3c(C)c4oc(-c5ccccc5)nc4c(C(=O)N[C@@H]4C(=O)N[C@H](C(C)C)C(=O)N5CCC[C@H]5C(=O)N(C)CC(=O)N(C)[C@@H](C(C)C)C(=O)O[C@@H]4C)c3nc-2c(C(=O)N[C@@H]2C(=O)N[C@H](C(C)C)C(=O)N3CCC[C@H]3C(=O)N(C)CC(=O)N(C)[C@@H](C(C)C)C(=O)O[C@@H]2C)c(N)c1=O [RAD II (3b)]	inhibited	800	18.8 ± 1.9 nmol/min per mg of protein			780 ± 66	70 ± 5	580 ± 55	68 ± 10	1/9	0/9	0/9		67	0.03	4/9					
Cc1c2oc3c(C)c4oc(CC(=O)NCCCCN)nc4c(C(=O)N[C@@H]4C(=O)N[C@H](C(C)C)C(=O)N5CCC[C@H]5C(=O)N(C)CC(=O)N(C)[C@@H](C(C)C)C(=O)O[C@@H]4C)c3nc-2c(C(=O)N[C@@H]2C(=O)N[C@H](C(C)C)C(=O)N3CCC[C@H]3C(=O)N(C)CC(=O)N(C)[C@@H](C(C)C)C(=O)O[C@@H]2C)c(N)c1=O [RAD III (3c)]	inhibited	870	22.1 ± 2.2 nmol/min per mg of protein	20.0 ± 2.5%	10.0 ± 1.0	430 ± 38	55 ± 7	365 ± 45	45 ± 8		0/9	4/9	practically ineffective	70	0.05	2/9	5.0 ± 1.0	5.0 ± 2.0	40.0 ± 5.5	8.0 ± 2.0	percent metabolite isolated: SAD [2]: 20.0 ± 2.0%; percent isolated: tissue bound (rat liver microsomes [3]): 5.0 ± 0.5%; percent isolated: unidentified metabolite (rat liver microsomes [3]): 8.0 ± 1.0%; percent metabolite isolated: SAD (rat liver microsomes [3]): 65.0 ± 5.5%; percent metabolite isolated: SAD-glucuronide and/or sulfate (rat liver microsomes [3]): nil; percent metabolite isolated: protein conjugates (rat liver microsomes [3]): 10.0 ± 10%
Cc1c2oc3c(C)c(O)c(N)c(C(=O)N[C@@H]4C(=O)N[C@H](C(C)C)C(=O)N5CCC[C@H]5C(=O)N(C)CC(=O)N(C)[C@@H](C(C)C)C(=O)O[C@@H]4C)c3nc-2c(C(=O)N[C@@H]2C(=O)N[C@H](C(C)C)C(=O)N3CCC[C@H]3C(=O)N(C)CC(=O)N(C)[C@@H](C(C)C)C(=O)O[C@@H]2C)c(N)c1=O [SAD (2)]	inhibited	815	19.3 ± 1.04 nmol/min per mg of protein	30-50%	50.0 ± 10.5	12 ± 4	15	70 ± 11	55 ± 6		0/9	0/9	practically ineffective	96	0.025	4/9	7.5 ± 1.0	10.0 ± 1.0	47.0 ± 6.5	5.5 ± 1.5	percent unconverted drug ([2]; listed as SAD(2)): 30.0 ± 3.0%; percent isolated: tissue bound (rat liver microsomes [3]): 15.0 ± 3.0%; percent isolated: unidentified metabolite (rat liver microsomes [3]): 15.0 ± 4.0%; percent metabolite isolated: SAD-glucuronide and/or sulfate (rat liver microsomes [3]): nil; percent metabolite isolated: protein conjugates (rat liver microsomes [3]): 20.0 ± 5.0%
